Converted amounts (≈) assume the structure as drawn. “And” between values parts separate entries of the source, which are not always exact repeats. Identical values can stand only once. The source made the active and inactive calls. The calls are words filed in the database; no cut-off is given here.
Assays:
[1] = test system: Stenotrophomonas maltophilia; assay: Antimicrobial activity against Stenotrophomonas maltophilia ATCC 17808 incubated for 16 to 20 hrs by CLSI based broth dilution method; assay type: functional; settings: time 16-20 hrs
Enterococcus faecium = assay: Antimicrobial activity against Enterococcus faecium ATCC 29212 incubated for 16 to 20 hrs by CLSI based broth dilution method; assay type: functional
Escherichia coli = assay: Antimicrobial activity against Escherichia coli ATCC 25922 incubated for 16 to 20 hrs by CLSI based broth dilution method; assay type: functional; settings: time 16-20 hrs
Staphylococcus aureus [2] = assay: Antimicrobial activity against Staphylococcus aureus ATCC 29213 incubated for 16 to 20 hrs by CLSI based broth dilution method; assay type: functional; settings: time 16-20 hrs
Erythrocyte = assay: (§1) Hemolytic activity in sheep erythrocytes incubated for 1 hr by absorbance based analysis; assay type: toxicity, cell-based, Ovis aries; settings: erythrocyte, 1 h
Staphylococcus aureus [3] = assay: Induction of ROS accumulation in Staphylococcus aureus ATCC 29213 at 0.5 ug/ml incubated for 30 mins by DCF-DA staining based fluorescence analysis; assay type: functional, organism-based; settings: dose 0.5 µg/ml
Cell membrane [4] = assay: Induction of membrane disruption in Staphylococcus aureus ATCC 29213 assessed as increase in red fluorescence at 8 ug/ml incubated for 30 mins by DAPI/PI staining based confocal microscopic analysis; assay type: subcellular; settings: dose 8.0 µg/ml
Staphylococcus aureus [5] = assay: Antimicrobial activity against methicillin-resistant Staphylococcus aureus incubated for 16 to 20 hrs by CLSI based broth dilution method; assay type: functional; settings: time 16-20 hrs
Cell membrane [6] = assay: Induction of membrane disruption in Staphylococcus aureus ATCC 29213 assessed as nucleic acid leakage at 16 ug/ml incubated for 2 hrs by ultra-fine fluorescence spectrophotometry analysis; settings: dose 16.0 µg/ml
Staphylococcus aureus [7] = assay: Bactericidal activity against Staphylococcus aureus ATCC 29213 incubated for 16 to 20 hrs in presence of 50% plasma by broth dilution method; assay type: functional, organism-based; settings: time 16-20 hrs
Staphylococcus aureus [8] = assay: Antimicrobial activity against methicillin-resistant Staphylococcus aureus infected in Kunming female mouse assessed as reduction in bacterial load in skin at 10 mg/kg/day administered at labeled position and measured after 24 hrs relative to control; assay type: functional; set-up: scale not given: the % may be the effect or the level left
[9] = Induction of drug resistance in Staphylococcus aureus ATCC 29213 assessed as test compound MIC at sub-MIC measured after 20 days (reference value: 1 ug/ml); assay type: functional; settings: ATCC 29213, 480 h, time 20 day
[10] = as §1; assay type: toxicity, cell-based, Ovis aries, Erythrocyte; settings: sheep erythrocytes
Staphylococcus aureus [11] = assay: Antimicrobial activity against methicillin-resistant Staphylococcus aureus infected in Kunming female mouse assessed as reduction in neutrophil levels in skin at 5 to 10 mg/kg/day administered at labeled position and measured after 24 hrs by H and E staining based analysis; assay type: functional, organism-based; settings: dose 5-10 mg/kg/day
Cell membrane [12] = assay: Induction of membrane damage in Staphylococcus aureus ATCC 29213 assessed as change in membrane shape at 8 ug/ml incubated for 6 hrs by scanning electron microscopic analysis; settings: dose 8.0 µg/ml
Staphylococcus aureus [13] = assay: Antibacterial activity against Staphylococcus aureus ATCC 29213 assessed as inhibition of bacterial growth at 1 ug/ml incubated for 16 to 18 hrs in presence of genomic DNA at 0.125 to 4 ug/ml by microplate reader analysis; assay type: functional, organism-based; settings: dose 1.0 µg/ml, time 16-18 hrs
Staphylococcus aureus [14] = assay: Induction of ROS accumulation in Staphylococcus aureus ATCC 29213 at 1 ug/ml incubated for 30 mins by DCF-DA staining based fluorescence analysis; assay type: functional, organism-based; settings: dose 1.0 µg/ml
Cell membrane [15] = assay: Induction of membrane damage in Staphylococcus aureus ATCC 29213 assessed as sticky appearance of bacterial cells at 8 ug/ml incubated for 6 hrs by scanning electron microscopic analysis; assay type: subcellular; settings: dose 8.0 µg/ml
Cell membrane [16] = assay: Induction of membrane damage in Staphylococcus aureus ATCC 29213 assessed as membrane collapse with flowing contents at 8 ug/ml incubated for 6 hrs by scanning electron microscopic analysis; assay type: subcellular; settings: dose 8.0 µg/ml
Staphylococcus aureus [17] = assay: Induction of ROS accumulation in Staphylococcus aureus ATCC 29213 at 1 ug/ml incubated for 30 mins in presence of N-acetyl-L-cysteine by DCF-DA staining based fluorescence analysis; assay type: functional, organism-based; settings: dose 1.0 µg/ml
Staphylococcus aureus [18] = assay: Antibacterial activity against Staphylococcus aureus ATCC 29213 assessed as fold increase in MIC incubated for 18 hrs in presence of phosphatidylglycerol incubated for 18 hrs by checkerboard dilution assay relative to control; assay type: functional
Staphylococcus aureus [19] = assay: Antimicrobial activity against methicillin-resistant Staphylococcus aureus infected in Kunming female mouse assessed as reduction in skin inflammation at 5 to 10 mg/kg/day administered at labeled position and measured after 24 hrs by H and E staining based analysis; assay type: functional, organism-based; settings: dose 5-10 mg/kg/day
Cell membrane [20] = assay: Induction of membrane damage in Staphylococcus aureus ATCC 29213 assessed as shrunken bacterial cell surface at 8 ug/ml incubated for 6 hrs by scanning electron microscopic analysis; assay type: subcellular; settings: dose 8.0 µg/ml
Cell membrane [21] = assay: Induction of membrane depolarization in Staphylococcus aureus ATCC 29213 assessed as increase in fluorescence intensity treated for 6 mins prior to compound addition and further measured for 20 mins by DiSC3-5 dye based fluorescence analysis; assay type: subcellular; settings: dose 16-64 µg/ml
Staphylococcus aureus [22] = assay: Antibacterial activity against Staphylococcus aureus ATCC 29213 assessed as fold increase in MIC incubated for 18 hrs in presence of phosphatidylethanolamine at 64 ug/ml incubated for 18 hrs by checkerboard dilution assay relative to control; assay type: functional
Staphylococcus aureus [23] = assay: Bactericidal activity against Staphylococcus aureus ATCC 29213 assessed as reduction in bacterial growth at 8 ug/ml measured upto 24 hrs; assay type: functional, organism-based; settings: dose 8.0 µg/ml
[24] = Cytotoxicity against HUVEC cells assessed as inhibition of cell growth incubated for 72 hrs by CCK-8 assay; assay type: toxicity, cell-based; settings: human
Staphylococcus aureus [25] = assay: Antimicrobial activity against methicillin-resistant Staphylococcus aureus infected in Kunming female mouse assessed as reduction in bacterial load in skin at 5 mg/kg/day administered at labeled position and measured after 24 hrs relative to control; assay type: functional; set-up: scale not given: the % may be the effect or the level left
[26] = Cytotoxicity against human BGC cells assessed as inhibition of cell growth incubated for 72 hrs by CCK-8 assay; assay type: toxicity, cell-based
Staphylococcus aureus [27] = assay: Bactericidal activity against Staphylococcus aureus ATCC 29213 assessed as remaining bacterial concentration at 8 ug/ml measured after 8 hrs; assay type: functional; settings: dose 8 µg/ml
Staphylococcus aureus [28] = assay: Antibacterial activity against Staphylococcus aureus ATCC 29213 assessed as increase in MIC incubated for 18 hrs in presence of cardiolipin incubated for 18 hrs by checkerboard dilution assay; assay type: functional, organism-based
[29] = Cytotoxicity against human WPMY-1 cells assessed as inhibition of cell growth incubated for 72 hrs by CCK-8 assay; assay type: toxicity, cell-based
Staphylococcus aureus [30] = assay: Induction of drug resistance in Staphylococcus aureus ATCC 29213 at 0.1 times MIC measured after 20 passages; assay type: functional
Staphylococcus aureus [31] = assay: Antimicrobial activity against methicillin-resistant Staphylococcus aureus incubated for 16 to 20 hrs by broth microdilution method; assay type: functional; settings: time 16-20 hrs
Staphylococcus aureus [32] = assay: Antimicrobial activity against methicillin-resistant Staphylococcus aureus infected in Kunming female mouse assessed as reduction in bacterial load in skin administered at labeled position and measured after 24 hrs; assay type: functional, organism-based; settings: dose 5-10 mg/kg/day
Staphylococcus aureus [33] = assay: Antibacterial activity against Staphylococcus aureus ATCC 29213 assessed as inhibition of bacterial growth at 0.5 ug/ml incubated for 16 to 18 hrs in presence of genomic DNA at 0.125 to 4 ug/ml by microplate reader analysis; assay type: functional, organism-based; settings: dose 0.5 µg/ml, time 16-18 hrs
[34] = Stenotrophomonas maltophilia, ATCC 17808, read-out: MIC
[35] = Enterococcus faecium, ATCC 29212, time 16-20 hrs, read-out: MIC
[36] = Escherichia coli, ATCC 25922, read-out: MIC
[37] = Staphylococcus aureus, ATCC 29213, read-out: MIC

CCCCCC[N+](C)(C)CCCOc1ccc2ccccc2c1-c1c(OCCC[N+](C)(C)CCCCCC)ccc2ccccc12.[Br-].[Br-]
MIC [1, 34]: 8 mg/L | MIC [1]: 8 mg/L | MIC (Enterococcus faecium; [35]): 4 mg/L | MIC (Enterococcus faecium; time 16-20 hrs): 8 mg/L | MIC (Escherichia coli; [36]): 8 mg/L | MIC (Escherichia coli): 8 mg/L | MIC (Staphylococcus aureus [2]; [37]): 8 mg/L | MIC (Staphylococcus aureus [2]): 8 mg/L | HC50 (Erythrocyte): 405 µg/mL and 868 µg/mL

CCCCCC[N+](C)(C)CCCOc1cccc(-c2cccc(OCCC[N+](C)(C)CCCCCC)c2)c1.[Br-].[Br-]
Activity (Staphylococcus aureus [3]): Active | MIC [1, 34]: 16 mg/L | Activity (Cell membrane [4]): Active | MIC90 (Staphylococcus aureus [5]): 1 mg/L | MIC (Enterococcus faecium; [35]): 8 mg/L | Activity (Cell membrane [6]): Active | Activity (Staphylococcus aureus [7]): Active | Activity (Staphylococcus aureus [8]): 99.93% | MIC (Escherichia coli; [36]): 16 mg/L | MIC (Staphylococcus aureus [2]; [37]): 1 mg/L | MIC [9]: 1 mg/L | HC50 at 1 h [10]: 905 µg/mL | Activity (Staphylococcus aureus [11]): Active | Activity (Cell membrane [12]): Active | Activity (Staphylococcus aureus [13]): Active | Activity (Staphylococcus aureus [14]): inactive | Activity (Cell membrane [15]): Active | Activity (Cell membrane [16]): Active | Activity (Staphylococcus aureus [17]): inactive | fold change (FC) (Staphylococcus aureus [18]): 16 | Activity (Staphylococcus aureus [19]): Active | Activity (Cell membrane [20]): Active | Activity (Cell membrane [21]): Dose-Dependent Effect | fold change (FC) (Staphylococcus aureus [22]): 2 | Activity (Staphylococcus aureus [23]): Active | IC50 at 72 h [24]: 24.6 mg/L | Activity (Staphylococcus aureus [25]): 99.67% | IC50 at 72 h [26]: 18.8 mg/L | Activity (Staphylococcus aureus [27]): <1 10^2CFU/ml | Activity (Staphylococcus aureus [28]): Active | IC50 at 72 h [29]: 23.3 mg/L

CCCCCCCC[N+](C)(C)CCCOc1ccc2ccccc2c1-c1c(OCCC[N+](C)(C)CCCCCCCC)ccc2ccccc12.[Br-].[Br-]
MIC [1, 34]: 2 mg/L | MIC [1]: 2 mg/L | MIC (Enterococcus faecium; [35]): 2 mg/L | MIC (Enterococcus faecium; time 16-20 hrs): 2 mg/L | MIC (Escherichia coli; [36]): 2 mg/L | MIC (Escherichia coli): 2 mg/L | MIC (Staphylococcus aureus [2]; [37]): 2 mg/L | MIC (Staphylococcus aureus [2]): 2 mg/L | HC50 (Erythrocyte): 20 µg/mL | HC50 at 1 h [10]: 28 µg/mL

O=C(O)c1cn(C2CC2)c2cc(N3CCNCC3)c(F)cc2c1=O
Activity (Staphylococcus aureus [30]): Active

CCCCCCCC[N+](C)(C)CCCCCOc1ccc(OCCCCC[N+](C)(C)CCCCCCCC)cc1.[Br-].[Br-]
MIC (Staphylococcus aureus [31]): 0.25 mg/L | HC50 at 1 h [10]: 1210 µg/mL

CN[C@H](CC(C)C)C(=O)N[C@H]1C(=O)N[C@@H](CC(N)=O)C(=O)N[C@H]2C(=O)N[C@H]3C(=O)N[C@H](C(=O)N[C@H](C(=O)O)c4cc(O)cc(O)c4-c4cc3ccc4O)[C@H](O)c3ccc(c(Cl)c3)Oc3cc2cc(c3O[C@@H]2O[C@H](CO)[C@@H](O)[C@H](O)[C@H]2O[C@H]2C[C@](C)(N)[C@H](O)[C@H](C)O2)Oc2ccc(cc2Cl)[C@H]1O [VANCOMYCIN]
MIC90 (Staphylococcus aureus [5]): 2 mg/L (≈ 1.38 µM) | HC50 at 1 h [10]: > 1280 µg/mL | Activity (Staphylococcus aureus [32]): Dose-Dependent Effect

COLISTIN
Activity (Staphylococcus aureus [33]): Active

— ChEMBL document CHEMBL5331085 (Eur J Med Chem, 2023)
